Each structure is given as a SMILES string. Numbered stars: 1 amine (or outer) side, 2 acyl side, 3 side chain; on linkers, the order of the positions; unused ones are H or OH. Bridge positions count the residues as written; N and C are the ends. Square brackets hold non-standard residues; d marks the D form. Peptide text beside a SMILES is read from it. * marks the point of attachment. hPhe(3,5-F2-4-CF3) = N[C@@H](CCc1cc(F)c(C(F)(F)F)c(F)c1)C(=O)O; hPhe(3-Cl-4-CF3) = N[C@@H](CCc1ccc(C(F)(F)F)c(Cl)c1)C(=O)O; hPhe(3-F,4-CF3) = N[C@@H](CCc1ccc(C(F)(F)F)c(F)c1)C(=O)O; NMePhe(4-CF3) = CN[C@@H](Cc1ccc(C(F)(F)F)cc1)C(=O)O; NMeAbu(4,4,4-F3) = CN[C@@H](CC(F)(F)F)C(=O)O; NMePhe(4-Cl) = CN[C@@H](Cc1ccc(Cl)cc1)C(=O)O; NMePhe(4-Me) = CN[C@@H](Cc1ccc(C)cc1)C(=O)O; NMedβ3hAla = C[C@H](CC(=O)[*:2])N(C)[*:1]; Phe(3-I) = N[C@@H](Cc1cccc(I)c1)C(=O)O; Pro(4,4-F2) = O=C(O)[C@@H]1CC(F)(F)CN1; NMeCha = CN[C@@H](CC1CCCCC1)C(=O)O; Hyp = O=C(O)[C@@H]1C[C@@H](O)CN1; NMeChg = CN[C@H](C(=O)O)C1CCCCC1; NMeI = CC[C@H](C)[C@H](NC)C(=O)O; NMeD = CN[C@@H](CC(=O)O)C(=O)O; NMeL = CN[C@@H](CC(C)C)C(=O)O; αMeL = CC(C)C[C@](C)(N)C(=O)O; NMeV = CN[C@H](C(=O)O)C(C)C; d(β3hA) = C[C@@H](N)CC(=O)O; NMeAbu = CC[C@H](NC)C(=O)O; Morpholide = C1CN(*)CCO1; NMeA = CN[C@@H](C)C(=O)O; NMeAib = CNC(C)(C)C(=O)O; Nle = CCCC[C@H](N)C(=O)O; Piperidide = C1CCN(*)CC1; Pra = C#CC[C@H](N)C(=O)O; Ac5c = NC1(C(=O)O)CCCC1; Aze = O=C(O)[C@@H]1CCN1; Abu = CC[C@H](N)C(=O)O; Aib = CC(C)(N)C(=O)O; Sar = CNCC(=O)O Bounds are passed on as bounds.

The test system of this test is Human pancreatic cancer cell line AsPC-1 (G12D mutation Kras). In words: AsPC-1 cell growth inhibition (AsPC-1 CGI). Format: cell-based. As to conditions: read-out: AsPC-1 cell growth inhibition, 50% growth inhibitory concentration (IC50 value); 96 hours, CellTiter-Glo, values classified in ranges. (Cellular ATP, detected with luciferase, serves as a proxy for viable cell number.)
Experimental: Test compounds were serially dilated with dimethyl sulfoxide, and 200 nL was then dispensed to a U-bottom 96-well plate using Labcyte Echo. […] The cell suspension was dispensed to a. plate containing a test compound at 100 μL per well and incubated at 37° C. in a 5% carbon dioxide gas incubator. 96 hours later, 80 μL of CellTiter-Glo (Promega) was added to each well and fluorescence was measured.
For `CCO[C@@H]1C[C@H]2C(=O)NC3(CCCC3)C(=O)N(C)[C@@H]([C@@H](C)CC)C(=O)N(C)[C@H](C(=O)N3CCOCC3)CC(=O)N(C)[C@@H](CC(C)C)C(=O)N[C@@H]([C@@H](C)CC)C(=O)N(C)[C@@H](C)C(=O)N3CC[C@H]3C(=O)N(C)[C@@H](Cc3ccc(C(F)(F)F)cc3)C(=O)N(C)CC(=O)N[C@@H](CCc3ccc(C(F)(F)F)c(Cl)c3)C(=O)N2C1` [Compound 1330] ([NMeL]I[NMeA][Aze][NMePhe(4-CF3)][Sar][hPhe(3-Cl-4-CF3)][Hyp](Et)[Ac5c][NMeI][NMeD]-Morpholide; lactam N-11), the IC50 was at most 20 nM. Turning to `CC[C@H](C)[C@@H]1NC(=O)[C@H](CC(C)C)N(C)C(=O)C[C@@H](C(=O)N2CCCCC2)N(C)C(=O)[C@H](C2CCCCC2)N(C)C(=O)[C@@H](C(C)C)NC(=O)[C@@H]2CCCN2C(=O)[C@H](CCc2ccc(C(F)(F)F)c(Cl)c2)NC(=O)CN(C)C(=O)[C@H](CC2CCCCC2)N(C)C(=O)CN(C)C(=O)CN(C)C1=O` [Compound 1138] ([NMeL]I[Sar][Sar][NMeCha][Sar][hPhe(3-Cl-4-CF3)]P[dV][NMeChg][NMeD]-Piperidide; lactam N-11), the IC50 is over 500 nM. To `CC[C@H](C)[C@@H]1NC(=O)[C@H](CC(C)C)NC(=O)C[C@@H](C(=O)N2CCCCC2)N(C)C(=O)[C@H](C(C)C)N(C)C(=O)C2(CCCC2)NC(=O)[C@@H]2CCCN2C(=O)[C@H](CCc2ccc(C(F)(F)F)c(Cl)c2)NC(=O)CN(C)C(=O)[C@H](CC2CCCCC2)N(C)C(=O)[C@@H]2CCN2C(=O)[C@H](C)N(C)C1=O` [Compound 368] (LI[NMeA][Aze][NMeCha][Sar][hPhe(3-Cl-4-CF3)]P[Ac5c][NMeV][NMeD]-Piperidide; lactam N-11) belongs over 500 nM; to `CC[C@H](C)[C@@H]1NC(=O)[C@H](CC(C)C)N(C)C(=O)C[C@@H](C(=O)N2CCCCC2)N(C)C(=O)[C@H](CC(C)C)NC(=O)C(C)(C)N(C)C(=O)[C@H](Cc2ccc(OC)cc2)NC(=O)[C@H](Cc2cccc(I)c2)NC(=O)CN(C)C(=O)[C@H](Cc2ccc(C)cc2)N(C)C(=O)[C@@H]2CCN2C(=O)CN(C)C1=O` [Compound 188] ([NMeL]I[Sar][Aze][NMePhe(4-Me)][Sar][Phe(3-I)]Y(Me)[NMeAib]L[NMeD]-Piperidide; lactam N-11), over 500 nM; to `CC[C@H](C)[C@@H]1NC(=O)[C@H](CC(C)C)N(C)C(=O)C[C@@H](C(=O)N2CCCCC2)N(C)C(=O)[C@H](C(C)C)N(C)C(=O)C(C)(C)NC(=O)[C@@H]2CCCN2C(=O)[C@H](CCc2ccc(C(F)(F)F)c(F)c2)NC(=O)CN(C)C(=O)[C@H](CC2CCCCC2)N(C)C(=O)CN(C)C(=O)CN(C)C1=O` [Compound 522] ([NMeL]I[Sar][Sar][NMeCha][Sar][hPhe(3-F,4-CF3)]P[Aib][NMeV][NMeD]-Piperidide; lactam N-11), over 500 nM. Turning to `CC[C@H](C)[C@@H]1NC(=O)[C@H](CC(C)C)N(C)C(=O)C[C@@H](C(=O)N2CCCCC2)N(C)C(=O)[C@H](CC)N(C)C(=O)C2(CCCC2)NC(=O)[C@@H]2CCCN2C(=O)[C@H](CCc2ccc(C(F)(F)F)c(Cl)c2)NC(=O)CN(C)C(=O)[C@H](CC2CCCCC2)N(C)C(=O)CN(C)C(=O)CN(C)C1=O` [Compound 1741] ([NMeL]I[Sar][Sar][NMeCha][Sar][hPhe(3-Cl-4-CF3)]P[Ac5c][NMeAbu][NMeD]-Piperidide; lactam N-11), the IC50 is over 500 nM. Turning to `CC[C@H](C)[C@@H]1NC(=O)[C@H](C)N(C)C(=O)C[C@@H](C)N(C)C(=O)[C@H](CC(C)C)NC(=O)C(C)(C)N(C)C(=O)[C@H](CC(C)C)NC(=O)[C@H](CCc2ccc(C(F)(F)F)c(Cl)c2)NC(=O)CN(C)C(=O)[C@H](Cc2ccc(C)cc2)N(C)C(=O)[C@@H]2CCN2C(=O)CN(C)C1=O` [Compound 1377] (cyclo([Aze][NMePhe(4-Me)][Sar][hPhe(3-Cl-4-CF3)]L[NMeAib]L[NMedβ3hAla][NMeA]I[Sar])), the IC50 is over 500 nM. For `CCCC[C@@H]1NC(=O)[C@H](CC(C)C)N(C)C(=O)C[C@@H](C(=O)N2CCCCC2)N(C)C(=O)[C@H](C2CCCCC2)N(C)C(=O)C2(CCCC2)NC(=O)[C@@H]2CCCN2C(=O)[C@H](CCc2ccc(C(F)(F)F)c(Cl)c2)NC(=O)CN(C)C(=O)[C@H](CC2CCCCC2)N(C)C(=O)CN(C)C(=O)CN(C)C1=O` [Compound 1723] ([NMeL][Nle][Sar][Sar][NMeCha][Sar][hPhe(3-Cl-4-CF3)]P[Ac5c][NMeChg][NMeD]-Piperidide; lactam N-11), the IC50 is over 500 nM. Turning to `CC[C@H](C)[C@@H]1NC(=O)[C@H](CC(C)C)N(C)C(=O)C[C@@H](C)NC(=O)[C@H](C(C)C)N(C)C(=O)[C@](C)(CC(C)C)NC(=O)[C@@H]2CCCN2C(=O)[C@H](CCc2ccc(C(F)(F)F)c(Cl)c2)NC(=O)CN(C)C(=O)[C@H](CC2CCCCC2)N(C)C(=O)CN(C)C(=O)CN(C)C1=O` [Compound 705] (cyclo(I[Sar][Sar][NMeCha][Sar][hPhe(3-Cl-4-CF3)]P[αMeL][NMeV][d(β3hA)][NMeL])), the IC50 was over 500 nM.

For the compound `CC[C@H](C)[C@@H]1NC(=O)[C@H](CC(F)(F)F)N(C)C(=O)C[C@@H](C(=O)N2CCOCC2)N(C)C(=O)[C@H](C2CCCCC2)N(C)C(=O)C2(CCCC2)NC(=O)[C@@H]2CC(F)(F)CN2C(=O)[C@H](CCc2cc(F)c(C(F)(F)F)c(F)c2)NC(=O)CN(C)C(=O)[C@H](Cc2ccc(C(F)(F)F)cc2)N(C)C(=O)CN(C)C(=O)CN(C)C1=O` [Compound 1260] ([NMeAbu(4,4,4-F3)]I[Sar][Sar][NMePhe(4-CF3)][Sar][hPhe(3,5-F2-4-CF3)][Pro(4,4-F2)][Ac5c][NMeChg][NMeD]-Morpholide; lactam N-11), the IC50 is at most 20 nM. Turning to `CC(C)C[C@@H]1NC(=O)[C@H](CC(C)C)N(C)C(=O)C[C@@H](C(=O)N2CCCCC2)N(C)C(=O)[C@H](C(C)C)N(C)C(=O)C2(CCCC2)NC(=O)[C@@H]2CCCN2C(=O)[C@H](CCc2ccc(C(F)(F)F)c(Cl)c2)NC(=O)CN(C)C(=O)[C@H](CC2CCCCC2)N(C)C(=O)[C@@H]2CCN2C(=O)[C@H](C)N(C)C1=O` [Compound 1754] ([NMeL]L[NMeA][Aze][NMeCha][Sar][hPhe(3-Cl-4-CF3)]P[Ac5c][NMeV][NMeD]-Piperidide; lactam N-11), the IC50 is over 500 nM.

With `CC[C@@H]1NC(=O)[C@H](CC(C)C)N(C)C(=O)C[C@@H](C(=O)N2CCCCC2)N(C)C(=O)[C@H](C2CCCCC2)N(C)C(=O)C2(CCCC2)NC(=O)[C@@H]2CCCN2C(=O)[C@H](CCc2ccc(C(F)(F)F)c(Cl)c2)NC(=O)CN(C)C(=O)[C@H](CC2CCCCC2)N(C)C(=O)CN(C)C(=O)CN(C)C1=O` [Compound 1775] ([NMeL][Abu][Sar][Sar][NMeCha][Sar][hPhe(3-Cl-4-CF3)]P[Ac5c][NMeChg][NMeD]-Piperidide; lactam N-11), the IC50 is over 500 nM. For `C#CC[C@@H]1NC(=O)[C@H](Cc2cccc(I)c2)NC(=O)CN(C)C(=O)[C@H](Cc2ccc(Cl)cc2)N(C)C(=O)CN(C)C(=O)CN(C)C(=O)[C@H]([C@@H](C)CC)NC(=O)[C@H](CC(C)C)N(C)C(=O)C[C@@H](C(=O)N2CCCCC2)N(C)C(=O)[C@H](CC(C)C)NC(=O)C(C)(C)N(C)C1=O` [Compound 1426] ([NMeL]I[Sar][Sar][NMePhe(4-Cl)][Sar][Phe(3-I)][Pra][NMeAib]L[NMeD]-Piperidide; lactam N-11), the IC50 was over 500 nM.
